Consider two compounds from ChEMBL document CHEMBL4014354, “2'-Chloro,2'-fluoro Ribonucleotide Prodrugs with Potent Pan-genotypic Activity against Hepatitis C Virus Replication in Culture” (J Med Chem, 2017).

The structures appear in SMILES notation.

In series [1] the target is DNA-directed RNA polymerase, mitochondrial (Homo sapiens) (UniProt O00411). As to the kind of experiment: Inhibition of human POLRMT using 5'-P32-RNA/DNA hybrid assessed as incorporation of UTP at 100 uM after 2 hrs by scintillation counting method relative to control. Also noted: scale not given: the % may be the effect or the level left.
Series [2] is described as follows: Inhibition of RNA polymerase 2 isolated from human HeLa cell nuclear extract assessed as decrease in incorporation of P32-alpha-CTP after 2 hrs by scintillation counting method. It counts as cell-free.
Series [3] is described as follows: Inhibition of wild type HCV genotype 4a NS5B. Details: species or system Hepatitis C virus subtype 4a.
Series [4] is described as follows: Inhibition of wild type HCV genotype 2a NS5B. Details: species or system Hepatitis C virus subtype 2a.
Series [5] is described as follows: Inhibition of human DNA polymerase gamma using 5' end radiolabeled 24nt DNA/36nt DNA as primer/template after 120 mins by PAGE analysis.
A short description of series [6]: Inhibition of HCV genotype 1b NS5B S96T mutant. Details: species or system Hepatitis C virus subtype 1b.
The nature of series [7]: Inhibition of C-terminal His-tagged HCV genotype 1b NS5Bdelta21 expressed in Escherichia coli BL21 (DE3) using synthetic 20mer RNA/[32P]GpG as template/primer after 90 mins by PAGE analysis. Also noted: species or system Hepatitis C virus subtype 1b.
Series [8] deals with T1, DNA polymerase alpha catalytic subunit (Homo sapiens, UniProt P09884).
T1 sequence (P09884 whole entry): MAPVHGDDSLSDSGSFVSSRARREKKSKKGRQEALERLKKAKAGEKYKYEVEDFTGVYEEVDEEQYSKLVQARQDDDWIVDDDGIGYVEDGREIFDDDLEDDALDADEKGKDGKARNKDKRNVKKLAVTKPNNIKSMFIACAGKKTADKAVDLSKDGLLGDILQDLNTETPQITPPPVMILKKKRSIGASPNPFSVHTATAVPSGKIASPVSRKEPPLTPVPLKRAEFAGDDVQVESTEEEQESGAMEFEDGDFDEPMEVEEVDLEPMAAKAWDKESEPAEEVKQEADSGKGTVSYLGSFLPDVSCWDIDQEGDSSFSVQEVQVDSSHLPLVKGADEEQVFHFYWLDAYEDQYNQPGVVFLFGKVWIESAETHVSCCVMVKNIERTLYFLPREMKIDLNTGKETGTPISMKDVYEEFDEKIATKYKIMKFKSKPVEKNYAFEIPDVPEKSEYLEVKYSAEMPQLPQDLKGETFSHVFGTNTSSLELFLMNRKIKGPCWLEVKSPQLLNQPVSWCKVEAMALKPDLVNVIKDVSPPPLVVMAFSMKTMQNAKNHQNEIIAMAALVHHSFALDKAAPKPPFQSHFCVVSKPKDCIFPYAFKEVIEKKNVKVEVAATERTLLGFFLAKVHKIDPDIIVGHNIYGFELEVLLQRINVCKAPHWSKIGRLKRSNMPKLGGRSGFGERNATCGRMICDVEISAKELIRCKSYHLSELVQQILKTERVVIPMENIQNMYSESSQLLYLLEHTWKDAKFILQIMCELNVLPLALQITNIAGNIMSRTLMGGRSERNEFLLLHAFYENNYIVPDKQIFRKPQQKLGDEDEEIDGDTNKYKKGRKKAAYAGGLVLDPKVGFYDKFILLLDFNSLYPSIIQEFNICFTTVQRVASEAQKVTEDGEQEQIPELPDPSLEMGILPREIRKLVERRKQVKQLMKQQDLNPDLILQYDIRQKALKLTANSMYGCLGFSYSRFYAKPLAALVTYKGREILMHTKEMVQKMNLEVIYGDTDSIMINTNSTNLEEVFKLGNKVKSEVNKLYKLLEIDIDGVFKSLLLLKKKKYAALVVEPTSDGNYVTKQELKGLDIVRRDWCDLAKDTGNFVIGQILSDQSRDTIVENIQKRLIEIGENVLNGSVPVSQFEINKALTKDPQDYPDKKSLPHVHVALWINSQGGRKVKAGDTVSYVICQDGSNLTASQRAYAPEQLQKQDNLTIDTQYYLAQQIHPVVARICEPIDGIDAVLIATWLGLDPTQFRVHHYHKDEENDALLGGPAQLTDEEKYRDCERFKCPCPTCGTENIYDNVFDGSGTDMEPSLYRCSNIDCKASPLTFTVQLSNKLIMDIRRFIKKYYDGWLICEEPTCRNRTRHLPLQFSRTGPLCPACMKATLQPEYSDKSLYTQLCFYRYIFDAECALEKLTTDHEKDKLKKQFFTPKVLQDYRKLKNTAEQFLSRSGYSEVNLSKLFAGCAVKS
Kind of series: Inhibition of human DNA polymerase alpha using 5' end radiolabeled 24nt DNA/48nt DNA as primer/template after 5 mins by PAGE analysis.

A further series addresses DNA polymerase beta (Homo sapiens, UniProt P06746). As to the kind of experiment: Inhibition of human DNA polymerase beta using 5' end radiolabeled 24nt DNA/48nt DNA as primer/template after 5 mins by PAGE analysis.
Series [9] can be described thus: Metabolic stability in human blood assessed as compound remaining at 2 uM after 2 hrs by LC-MS/MS method. It is filed as ADME, tissue-based. As to conditions: read-out: Stability.

DNA-directed RNA polymerase, mitochondrial (Homo sapiens), sequence (O00411 whole entry): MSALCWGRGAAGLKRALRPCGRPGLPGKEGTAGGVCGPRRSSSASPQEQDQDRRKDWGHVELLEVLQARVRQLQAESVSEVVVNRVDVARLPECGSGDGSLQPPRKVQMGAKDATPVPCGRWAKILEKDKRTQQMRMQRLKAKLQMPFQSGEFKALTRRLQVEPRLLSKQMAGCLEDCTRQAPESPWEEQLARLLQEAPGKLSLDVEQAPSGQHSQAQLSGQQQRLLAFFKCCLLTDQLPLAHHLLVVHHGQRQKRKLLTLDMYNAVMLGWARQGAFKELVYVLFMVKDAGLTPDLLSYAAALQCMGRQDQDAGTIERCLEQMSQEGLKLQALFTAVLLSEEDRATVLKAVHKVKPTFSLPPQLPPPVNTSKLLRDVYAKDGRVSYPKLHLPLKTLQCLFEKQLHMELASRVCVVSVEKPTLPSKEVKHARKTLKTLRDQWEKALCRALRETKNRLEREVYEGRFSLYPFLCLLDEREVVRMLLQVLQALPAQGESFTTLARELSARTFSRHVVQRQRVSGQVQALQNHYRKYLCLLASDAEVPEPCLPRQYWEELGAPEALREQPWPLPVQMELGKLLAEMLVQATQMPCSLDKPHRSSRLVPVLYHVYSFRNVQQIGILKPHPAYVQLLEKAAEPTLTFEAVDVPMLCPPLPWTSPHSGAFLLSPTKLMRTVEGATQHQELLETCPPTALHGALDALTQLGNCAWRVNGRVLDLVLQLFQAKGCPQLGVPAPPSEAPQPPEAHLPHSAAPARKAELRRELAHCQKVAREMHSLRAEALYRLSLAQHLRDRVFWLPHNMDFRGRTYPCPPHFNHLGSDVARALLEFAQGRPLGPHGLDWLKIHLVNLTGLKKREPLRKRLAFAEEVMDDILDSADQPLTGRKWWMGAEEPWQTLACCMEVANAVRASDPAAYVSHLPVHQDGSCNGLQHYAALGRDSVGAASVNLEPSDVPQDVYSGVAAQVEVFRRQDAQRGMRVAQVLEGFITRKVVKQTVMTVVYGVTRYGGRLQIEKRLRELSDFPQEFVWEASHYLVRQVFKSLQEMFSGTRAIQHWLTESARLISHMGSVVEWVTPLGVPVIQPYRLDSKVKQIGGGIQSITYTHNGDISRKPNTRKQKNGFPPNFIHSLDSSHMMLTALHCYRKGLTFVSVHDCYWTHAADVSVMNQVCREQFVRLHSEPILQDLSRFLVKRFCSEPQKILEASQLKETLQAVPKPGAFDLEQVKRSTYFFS

For `O=c1ccn([C@@H]2O[C@H](COP(=O)(O)OP(=O)(O)OP(=O)(O)O)C(O)C2(F)Cl)c(=O)[nH]1` (single isomer, unassigned), in series [1], the Activity was 35%. Moreover, the IC50 is greater than 100 µM in [2]; 8.6 µM in series [3]; 6.1 µM in series [4]; greater than 100 µM in [5]; 13 µM in [6]; 5.5 µM in series [7]. The IC50 is 20.2 µM in [8] and greater than 100 µM on DNA polymerase beta.
Take `CC1CC(OC(=O)C(O)c2ccccc2)CC(C)(C)N1C` (stereo not given) [EUCATROPINE]: in [9], the remaining at 2 h, 2 µM is 19%.

As usually defined, the IC50 is the concentration at which inhibition is half-maximal.
